Earlier results in patent publication US10759750B2, “Beta lactams as modulators of glutamate uptake and methods for use thereof” (Temple University—Of The Commonwealth System of Higher …, priority 2016, dated 2020).
Read-outs that look alike come from different tables or passages of the source.

Key:
[1] = system: amyotrophic lateral sclerosis (ALS); details: ALS patients; 50 mg of Riluzole daily and palliative drugs; after 15 months of treatment

## Nc1nc2ccc(OC(F)(F)F)cc2s1 [Riluzole]
[1]
  increase in life expectancy: 2-3 months

## CO/N=C(\C(=O)N[C@@H]1C(=O)N2C(C(=O)O)=C(CSc3nc(=O)c(=O)[nH]n3C)CS[C@H]12)c1csc(N)n1 [ceftriaxone]
Based on AUCs (Lutsar and Friedland, 2000)
  free, unbound cerebrospinal fluid/plasma ratio: 1%
Based on Cmax (Chadwick et al., 1983)
  free, unbound cerebrospinal fluid/plasma ratio: 2-13%
